The source of these data is the supplement of paper PMC11208160.
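Also: IS621 bridge recombinase in Escherichia coli cells against a fixed T5 target plasmid.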

The series in a line: recombinant UMI read abundance after kanamycin selection (control-corrected) (log10(CPM+1)); higher = more efficient recombination; extreme values may be limits of the assay; sequences stand for … in AGTGCAGAGAAAATCGGCCAGTTTTCTCTGCCTGCAGTCCGCATGCCGTGGGACCCCTTGGGTTCTAACCTGTTGCCTAGATTTATGCAGCGGACTGCCTTTCTCCCAAAGTGATAAACCGG…AGGTTGGTTTCACT; site = the 11-nt donor. The protocol:
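Pooled E. coli donor-specificity screen for the IS621 bridge recombinase. Each library member carries a reprogrammed 11-nt donor and a full-length LE bridge RNA expressed in cis from the natural promoter, with a paired donor-binding loop (8-nt LDG + 4-nt RDG) and a target-binding loop fixed to T5. It is co-electroporated with a T5 target plasmid; recombinase is induced with 0.07 mM IPTG and recombinants are selected on kanamycin. UMIs are counted as CPM, averaged over two biological replicates and corrected by the unselected control. Molecule = full bridge RNA written as DNA, built from the T5 scaffold: LDG = donor specificity nt 1-8, RDG = reverse complement of nt 8-11.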
Take “ACAGTATCATGGACCGGTTTTCCCGGTAATCCGTATTTGCA (site AACGTATCTTG)”: the “recombinant UMI read abundance (log10)” value came to 2.46. As to “ACAGTATCATGGACCGGTTTTCCCGGTAATCCGTATTTGCA (site ACAAAATCTTG)”, the “recombinant UMI read abundance (log10)” value was 0.724. The same measure for “ACAGTATCATGGACCGGTTTTCCCGGTAATCCGTATTTGCA (site ACAATAACTTG)”: 0; for “ACAGTATCATGGACCGGTTTTCCCGGTAATCCGTATTTGCA (site ACAATATCTAG)”: 0.00607; for “ACAGTATCATGGACCGGTTTTCCCGGTAATCCGTATTTGCA (site ACAATATCTTC)”: 0.00345.

On to “ACAGTATCATGGACCGGTTTTCCCGGTAATCCGTATTTGCA (site ACAATATCTTG)”, for which the “recombinant UMI read abundance (log10)” value is 2.8. The same measure for “ACAGTATCATGGACCGGTTTTCCCGGTAATCCGTATTTGCA (site ACAATCTCTTG)”: 0.

Regarding “ACAGTATCATGGACCGGTTTTCCCGGTAATCCGTATTTGCA (site ACACCATCTTG)”, the “recombinant UMI read abundance (log10)” value was 0.786. For the sequence “ACAGTATCATGGACCGGTTTTCCCGGTAATCCGTATTTGCA (site ACACTAGCTTG)”, the “recombinant UMI read abundance (log10)” value came to 0.00526. The same measure for “ACAGTATCATGGACCGGTTTTCCCGGTAATCCGTATTTGCA (site ACACTATCTCG)”: 0.

Take “ACAGTATCATGGACCGGTTTTCCCGGTAATCCGTATTTGCA (site ACACTATCTTA)”: the “recombinant UMI read abundance (log10)” value is 0. The same measure for “ACAGTATCATGGACCGGTTTTCCCGGTAATCCGTATTTGCA (site ACACTATCTTG)”: 1.61; for “ACAGTATCATGGACCGGTTTTCCCGGTAATCCGTATTTGCA (site ACACTTTCTTG)”: 0; for “ACAGTATCATGGACCGGTTTTCCCGGTAATCCGTATTTGCA (site ACAGAAACTTG)”: 0. On to “ACAGTATCATGGACCGGTTTTCCCGGTAATCCGTATTTGCA (site ACAGAATCTAG)”, for which the “recombinant UMI read abundance (log10)” value turned out to be 0. Regarding “ACAGTATCATGGACCGGTTTTCCCGGTAATCCGTATTTGCA (site ACAGAATCTTC)”, the “recombinant UMI read abundance (log10)” value worked out at 0.287.

As for “ACAGTATCATGGACCGGTTTTCCCGGTAATCCGTATTTGCA (site ACAGAATCTTG)”, the “recombinant UMI read abundance (log10)” value came to 2.53. In the case of “ACAGTATCATGGACCGGTTTTCCCGGTAATCCGTATTTGCA (site ACAGACTCTTG)” it was 1.68; in that of “ACAGTATCATGGACCGGTTTTCCCGGTAATCCGTATTTGCA (site ACAGCAGCTTG)”, 0.00322; in that of “ACAGTATCATGGACCGGTTTTCCCGGTAATCCGTATTTGCA (site ACAGCATCTCG)”, 0.00554. In the case of “ACAGTATCATGGACCGGTTTTCCCGGTAATCCGTATTTGCA (site ACAGCATCTTA)” it was 0.00439. In the case of “ACAGTATCATGGACCGGTTTTCCCGGTAATCCGTATTTGCA (site ACAGCATCTTG)” it was 1.64. Consider “ACAGTATCATGGACCGGTTTTCCCGGTAATCCGTATTTGCA (site ACAGCTTCTTG)”, for which the “recombinant UMI read abundance (log10)” value came to 0. In the case of “ACAGTATCATGGACCGGTTTTCCCGGTAATCCGTATTTGCA (site ACAGGACCTTG)” it was 0; in that of “ACAGTATCATGGACCGGTTTTCCCGGTAATCCGTATTTGCA (site ACAGGATCTGG)”, 0; in that of “ACAGTATCATGGACCGGTTTTCCCGGTAATCCGTATTTGCA (site ACAGGATCTTG)”, 1.01.

As for “ACAGTATCATGGACCGGTTTTCCCGGTAATCCGTATTTGCA (site ACAGGATCTTT)”, the “recombinant UMI read abundance (log10)” value worked out at 0.

On to “ACAGTATCATGGACCGGTTTTCCCGGTAATCCGTATTTGCA (site ACAGGGTCTTG)”, for which the “recombinant UMI read abundance (log10)” value was 1.17. In the case of “ACAGTATCATGGACCGGTTTTCCCGGTAATCCGTATTTGCA (site ACAGTAACTAG)” it was 0; in that of “ACAGTATCATGGACCGGTTTTCCCGGTAATCCGTATTTGCA (site ACAGTAACTTC)”, 0.0177. The same measure for “ACAGTATCATGGACCGGTTTTCCCGGTAATCCGTATTTGCA (site ACAGTAACTTG)”: 1.55; for “ACAGTATCATGGACCGGTTTTCCCGGTAATCCGTATTTGCA (site ACAGTACCTGG)”: 0. The same measure for “ACAGTATCATGGACCGGTTTTCCCGGTAATCCGTATTTGCA (site ACAGTACCTTG)”: 0.

On to “ACAGTATCATGGACCGGTTTTCCCGGTAATCCGTATTTGCA (site ACAGTACCTTT)”, for which the “recombinant UMI read abundance (log10)” value worked out at 0.00804.

On to “ACAGTATCATGGACCGGTTTTCCCGGTAATCCGTATTTGCA (site ACAGTAGCTCG)”, for which the “recombinant UMI read abundance (log10)” value came to 0.00206. The same measure for “ACAGTATCATGGACCGGTTTTCCCGGTAATCCGTATTTGCA (site ACAGTAGCTTA)”: 0.00334. “ACAGTATCATGGACCGGTTTTCCCGGTAATCCGTATTTGCA (site ACAGTAGCTTG)”: the “recombinant UMI read abundance (log10)” value stood at 0.142.

Take “ACAGTATCATGGACCGGTTTTCCCGGTAATCCGTATTTGCA (site ACAGTATCTAC)”: the “recombinant UMI read abundance (log10)” value worked out at 0. In the case of “ACAGTATCATGGACCGGTTTTCCCGGTAATCCGTATTTGCA (site ACAGTATCTAG)” it was 1.81; in that of “ACAGTATCATGGACCGGTTTTCCCGGTAATCCGTATTTGCA (site ACAGTATCTCA)”, 0.878; in that of “ACAGTATCATGGACCGGTTTTCCCGGTAATCCGTATTTGCA (site ACAGTATCTCG)”, 1.77. Turning to “ACAGTATCATGGACCGGTTTTCCCGGTAATCCGTATTTGCA (site ACAGTATCTGG)”, the “recombinant UMI read abundance (log10)” value came to 2.13. Turning to “ACAGTATCATGGACCGGTTTTCCCGGTAATCCGTATTTGCA (site ACAGTATCTGT)”, the “recombinant UMI read abundance (log10)” value is 0.00931. For “ACAGTATCATGGACCGGTTTTCCCGGTAATCCGTATTTGCA (site ACAGTATCTTA)”, the “recombinant UMI read abundance (log10)” value is 2.23.

On to “ACAGTATCATGGACCGGTTTTCCCGGTAATCCGTATTTGCA (site ACAGTATCTTC)”, for which the “recombinant UMI read abundance (log10)” value was 1.17. The same measure for “ACAGTATCATGGACCGGTTTTCCCGGTAATCCGTATTTGCA (site ACAGTATCTTG)”: 2.67.

As to “ACAGTATCATGGACCGGTTTTCCCGGTAATCCGTATTTGCA (site ACAGTATCTTT)”, the “recombinant UMI read abundance (log10)” value came to 2.17. The same measure for “ACAGTATCATGGACCGGTTTTCCCGGTAATCCGTATTTGCA (site ACAGTCACTTG)”: 2.03; for “ACAGTATCATGGACCGGTTTTCCCGGTAATCCGTATTTGCA (site ACAGTCTCTAG)”: 0. The same measure for “ACAGTATCATGGACCGGTTTTCCCGGTAATCCGTATTTGCA (site ACAGTCTCTTC)”: 0.0179; for “ACAGTATCATGGACCGGTTTTCCCGGTAATCCGTATTTGCA (site ACAGTCTCTTG)”: 2.06. The same measure for “ACAGTATCATGGACCGGTTTTCCCGGTAATCCGTATTTGCA (site ACAGTGCCTTG)”: 0.121.
